According to patent publication US11524938B2, “Aromatic sulfonamide derivatives” (Bayer Pharma Aktiengesellschaft, priority 2016, dated 2022):

Biological target: T1, human P2X4 (Homo sapiens, UniProt Q99571)
T1 sequence (Q99571 1-388): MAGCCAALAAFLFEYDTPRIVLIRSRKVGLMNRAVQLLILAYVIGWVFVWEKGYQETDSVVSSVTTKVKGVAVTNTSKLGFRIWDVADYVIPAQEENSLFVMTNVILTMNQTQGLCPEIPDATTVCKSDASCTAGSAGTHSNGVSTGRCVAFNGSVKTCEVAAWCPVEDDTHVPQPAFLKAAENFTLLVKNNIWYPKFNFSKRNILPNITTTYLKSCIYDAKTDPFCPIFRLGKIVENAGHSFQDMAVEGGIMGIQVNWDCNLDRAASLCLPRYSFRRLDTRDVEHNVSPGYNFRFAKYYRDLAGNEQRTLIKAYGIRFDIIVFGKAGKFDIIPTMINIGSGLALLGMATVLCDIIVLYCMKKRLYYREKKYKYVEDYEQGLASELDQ
Assay: Human P2X4 HEK Cell FLIPR Assay
Type: cell-based
Conditions: agonist Bz-ATP at EC80; for Emax: HEK293, HEK293 cells, percentage of maximal inhibition, read-out: Human P2X4 HEK Cells (FLIPR Assay) avg Efficacy [%]; for IC50: HEK293 cells, individual values listed where some fall outside detection range
Procedure, shortened: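 Calcium flux read by FLIPR for 120 sec after Bz-ATP challenge at EC80 (established each assay day), following 30 min room-temperature compound preincubation in dye-loaded stable human P2X4 HEK293 cells. Peak RFU over basal normalized to agonist control; IC50, maximal inhibition and Hill coefficient from triplicate means.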

SMILES | Emax | IC50
NS(=O)(=O)c1cc(NC(=O)Cc2ccc(C(F)F)cc2)ccc1-n1cc(Br)cn1 [Example 73, N-[4-(4-Bromo-1H-pyrazol-1-yl)-3-sulfamoylphenyl]-2-[4-(difluoromethyl)-phenyl]acetamide] | 52% | 168 nM
NS(=O)(=O)c1cc(NC(=O)Cc2ccccc2Br)ccc1-n1cc(Cl)cn1 [Example 74, 2-(2-Bromophenyl)-N-[4-(4-chloro-1H-pyrazol-1-yl)-3-sulfamoylphenyl]acetamide] | 84% | 49 nM
COc1ccccc1CC(=O)Nc1ccc(-n2cc(Cl)cn2)c(S(N)(=O)=O)c1 [Example 75, N-[4-(4-Chloro-1H-pyrazol-1-yl)-3-sulfamoylphenyl]-2-(2-methoxyphenyl)acetamide] | 87% | 213 nM
NS(=O)(=O)c1cc(NC(=O)Cc2ccc(Cl)cc2)ccc1-n1cc(Cl)cn1 [Example 76, 2-(4-Chlorophenyl)-N-[4-(4-chloro-1H-pyrazol-1-yl)-3-sulfamoylphenyl]acetamide] | 34% | > 25000 nM
NS(=O)(=O)c1cc(NC(=O)Cc2c(F)cccc2Cl)ccc1-n1cc(Cl)cn1 [Example 77, 2-(2-Chloro-6-fluorophenyl)-N-[4-(4-chloro-1H-pyrazol-1-yl)-3-sulfamoylphenyl]-acetamide] | 82% | 71 nM
NS(=O)(=O)c1cc(NC(=O)Cc2ccccc2[N+](=O)[O-])ccc1-n1cc(Cl)cn1 [Example 78, N-[4-(4-Chloro-1H-pyrazol-1-yl)-3-sulfamoylphenyl]-2-(2-nitrophenyl)acetamide] | 97% | 517 nM
NS(=O)(=O)c1cc(NC(=O)Cc2ccc(Cl)cc2Cl)ccc1-n1cc(Cl)cn1 [Example 79, N-[4-(4-Chloro-1H-pyrazol-1-yl)-3-sulfamoylphenyl]-2-(2,4-dichlorophenyl)acetamide] | 78% | 2030 nM
NS(=O)(=O)c1cc(NC(=O)Cc2c(Cl)cccc2Cl)ccc1-n1cc(Cl)cn1 [Example 80, N-[4-(4-Chloro-1H-pyrazol-1-yl)-3-sulfamoylphenyl]-2-(2,6-dichlorophenyl)acetamide] | 96% | 79 nM
NS(=O)(=O)c1cc(NC(=O)Cc2ccc(F)c(F)c2)ccc1-n1cc(Cl)cn1 [Example 81, N-[4-(4-Chloro-1H-pyrazol-1-yl)-3-sulfamoylphenyl]-2-(3,4-difluorophenyl)acetamide] | 40% | > 25000 nM
NS(=O)(=O)c1cc(NC(=O)Cc2cccc(Cl)c2)ccc1-n1cc(Cl)cn1 [Example 82, 2-(3-Chlorophenyl)-N-[4-(4-chloro-1H-pyrazol-1-yl)-3-sulfamoylphenyl]acetamide] | 36% | > 25000 nM
NS(=O)(=O)c1cc(NC(=O)Cc2cc(F)cc(F)c2)ccc1-n1cc(Cl)cn1 [Example 83, N-[4-(4-Chloro-1H-pyrazol-1-yl)-3-sulfamoylphenyl]-2-(3,5-difluorophenyl)acetamide] | 36% | > 25000 nM
NS(=O)(=O)c1cc(NC(=O)Cc2ccc(F)cc2)ccc1-n1cc(Cl)cn1 [Example 84, N-[4-(4-Chloro-1H-pyrazol-1-yl)-3-sulfamoylphenyl]-2-(4-fluorophenyl)acetamide] | 29% | > 25000 nM
NS(=O)(=O)c1cc(NC(=O)Cc2ccccc2O)ccc1-n1cc(Cl)cn1 [Example 85, N-[4-(4-Chloro-1H-pyrazol-1-yl)-3-sulfamoylphenyl]-2-(2-hydroxyphenyl)acetamide] | 92% | 42 nM
NS(=O)(=O)c1cc(NC(=O)Cc2ccc(O)cc2)ccc1-n1cc(Cl)cn1 [Example 86, N-[4-(4-Chloro-1H-pyrazol-1-yl)-3-sulfamoylphenyl]-2-(4-hydroxyphenyl)acetamide] | 97% | 353 nM
NS(=O)(=O)c1cc(NC(=O)Cc2cccc(F)c2F)ccc1-n1cc(Cl)cn1 [Example 87, N-[4-(4-Chloro-1H-pyrazol-1-yl)-3-sulfamoylphenyl]-2-(2,3-difluorophenyl)acetamide] | 82% | 342 nM
NS(=O)(=O)c1cc(NC(=O)Cc2ccc(F)cc2Cl)ccc1-n1cc(Cl)cn1 [Example 88, 2-(2-Chloro-4-fluorophenyl)-N-[4-(4-chloro-1H-pyrazol-1-yl)-3-sulfamoyl-phenyl]acetamide] | 87% | 80 nM

SMILES | Emax | IC50
NS(=O)(=O)c1cc(NC(=O)Cc2cccnc2Cl)ccc1-n1cc(Cl)cn1 [Example 89, N-[4-(4-Chloro-1H-pyrazol-1-yl)-3-sulfamoylphenyl]-2-(2-chloropyridin-3-yl)-acetamide] | 83% | 2320 nM
NS(=O)(=O)c1cc(NC(=O)Cc2cccc(C(F)(F)F)c2Cl)ccc1-n1cc(Cl)cn1 [Example 90, N-[4-(4-Chloro-1H-pyrazol-1-yl)-3-sulfamoylphenyl]-2-[2-chloro-3-(trifluoromethyl)-phenyl]acetamide] | 85% | 774 nM
NS(=O)(=O)c1cc(NC(=O)Cc2ccccc2OC(F)F)ccc1-n1cc(Cl)cn1 [Example 91, N-[4-(4-Chloro-1H-pyrazol-1-yl)-3-sulfamoylphenyl]-2-[2-(difluoromethoxy)-phenyl]acetamide] | 94% | 169 nM
NS(=O)(=O)c1cc(NC(=O)Cc2ccccc2OC(F)(F)F)ccc1-n1cc(Cl)cn1 [Example 92, N-[4-(4-Chloro-1H-pyrazol-1-yl)-3-sulfamoylphenyl]-2-[2-(trifluoromethoxy)-phenyl]acetamide] | 92% | 143 nM
NS(=O)(=O)c1cc(NC(=O)Cc2cc(F)c(F)cc2Cl)ccc1-n1cc(Cl)cn1 [Example 93, 2-(2-Chloro-4,5-difluorophenyl)-N-[4-(4-chloro-1H-pyrazol-1-yl)-3-sulfamoylphenyl]-acetamide] | 73% | 74 nM
COc1ccc(CC(=O)Nc2ccc(-n3cc(Cl)cn3)c(S(N)(=O)=O)c2)c(Cl)c1 [Example 94, 2-(2-Chloro-4-methoxyphenyl)-N-[4-(4-chloro-1H-pyrazol-1-yl)-3-sulfamoylphenyl]-acetamide] | 72% | 413 nM
Cc1ccc(F)c(CC(=O)Nc2ccc(-n3cc(Cl)cn3)c(S(N)(=O)=O)c2)c1Cl [Example 95, 2-(2-Chloro-6-fluoro-3-methylphenyl)-N-[4-(4-chloro-1H-pyrazol-1-yl)-3-sulfamoyl-phenyl]acetamide] | 87% | 54 nM
NS(=O)(=O)c1cc(NC(=O)Cc2c(F)ccc(F)c2Cl)ccc1-n1cc(Cl)cn1 [Example 96, 2-(2-Chloro-3,6-difluorophenyl)-N-[4-(4-chloro-1H-pyrazol-1-yl)-3-sulfamoylphenyl]-acetamide] | 83% | 233 nM
Cc1ccc(Cl)c(CC(=O)Nc2ccc(-n3cc(Cl)cn3)c(S(N)(=O)=O)c2)c1 [Example 97, 2-(2-Chloro-5-methylphenyl)-N-[4-(4-chloro-1H-pyrazol-1-yl)-3-sulfamoylphenyl]-acetamide] | 103% | 201 nM
NS(=O)(=O)c1cc(NC(=O)Cc2cc(F)ccc2Cl)ccc1-n1cc(Cl)cn1 [Example 98, 2-(2-Chloro-5-fluorophenyl)-N-[4-(4-chloro-1H-pyrazol-1-yl)-3-sulfamoylphenyl]-acetamide] | 77% | 124 nM
NS(=O)(=O)c1cc(NC(=O)Cc2cc(Cl)ccc2Cl)ccc1-n1cc(Cl)cn1 [Example 99, N-[4-(4-Chloro-1H-pyrazol-1-yl)-3-sulfamoylphenyl]-2-(2,5-dichlorophenyl)acetamide] | 87% | 499 nM
CC(C)c1ccccc1CC(=O)Nc1ccc(-n2cc(Cl)cn2)c(S(N)(=O)=O)c1 [Example 100, N-[4-(4-Chloro-1H-pyrazol-1-yl)-3-sulfamoylphenyl]-2-(2-isopropylphenyl)acetamide] | 86% | 319 nM
COc1ccc(Cl)c(CC(=O)Nc2ccc(-n3cc(Cl)cn3)c(S(N)(=O)=O)c2)c1 [Example 101, 2-(2-Chloro-5-methoxyphenyl)-N-[4-(4-chloro-1H-pyrazol-1-yl)-3-sulfamoylphenyl]-acetamide] | 83% | 202 nM
NS(=O)(=O)c1cc(NC(=O)Cc2c(F)cc(F)cc2Cl)ccc1-n1cc(Cl)cn1 [Example 102, 2-(2-Chloro-4,6-difluorophenyl)-N-[4-(4-chloro-1H-pyrazol-1-yl)-3-sulfamoylphenyl]-acetamide] | 80% | 99 nM
NS(=O)(=O)c1cc(NC(=O)Cc2c(Cl)cccc2C(F)(F)F)ccc1-n1cc(Cl)cn1 [Example 103, N-[4-(4-Chloro-1H-pyrazol-1-yl)-3-sulfamoylphenyl]-2-[2-chloro-6-(trifluoromethyl)-phenyl]acetamide] | 103% | 174 nM
Cc1cc(F)c(Br)cc1CC(=O)Nc1ccc(-n2cc(Cl)cn2)c(S(N)(=O)=O)c1 [Example 104, 2-(5-Bromo-4-fluoro-2-methylphenyl)-N-[4-(4-chloro-1H-pyrazol-1-yl)-3-sulfamoyl-phenyl]acetamide] | 95% | 2230 nM
